# Measurements: US11254686B1 (Corvus Pharmaceuticals, Inc., priority 2017, dated 2022)
# What was measured:
# adenosine A2B receptor = adenosine A2B receptor (Homo sapiens (Human), UniProt P29275); test: Adenosine receptor activity assay (Table 1), A2B activity; assay type: biochemical; conditions: for Ratio: A2A activity to A2B activity (A2A/A2B); for IC50: read-out: Ave A2B cAMP IC50
# adenosine A2A receptor = adenosine A2A receptor (Homo sapiens (Human), UniProt P29274); test: Adenosine receptor activity assay (Table 1), A2A activity; assay type: biochemical; conditions: read-out: Ave A2A cAMP IC50
# Sequence of adenosine A2A receptor (P29274 whole entry): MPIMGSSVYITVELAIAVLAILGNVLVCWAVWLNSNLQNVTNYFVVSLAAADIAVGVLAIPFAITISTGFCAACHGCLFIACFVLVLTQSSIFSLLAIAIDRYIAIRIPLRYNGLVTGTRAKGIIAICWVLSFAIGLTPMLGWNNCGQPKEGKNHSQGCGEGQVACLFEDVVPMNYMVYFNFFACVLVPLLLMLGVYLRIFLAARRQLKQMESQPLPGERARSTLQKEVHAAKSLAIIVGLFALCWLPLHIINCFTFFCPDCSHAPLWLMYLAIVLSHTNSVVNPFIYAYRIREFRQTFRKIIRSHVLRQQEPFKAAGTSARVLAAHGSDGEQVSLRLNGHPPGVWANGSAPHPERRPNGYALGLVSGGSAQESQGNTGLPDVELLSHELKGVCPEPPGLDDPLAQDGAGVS
# Sequence of adenosine A2B receptor (P29275 whole entry): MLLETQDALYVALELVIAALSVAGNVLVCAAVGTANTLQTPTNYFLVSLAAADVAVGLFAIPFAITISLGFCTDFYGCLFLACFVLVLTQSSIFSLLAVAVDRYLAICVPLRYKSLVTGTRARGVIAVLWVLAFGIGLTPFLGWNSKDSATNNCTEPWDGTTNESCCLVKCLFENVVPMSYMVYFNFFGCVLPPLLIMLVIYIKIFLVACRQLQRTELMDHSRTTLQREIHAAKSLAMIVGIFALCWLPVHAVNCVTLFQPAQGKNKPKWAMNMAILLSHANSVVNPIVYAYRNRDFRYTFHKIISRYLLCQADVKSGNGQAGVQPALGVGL
Compound,Ratio (adenosine A2B receptor),IC50 (adenosine A2B receptor) [nM],IC50 (adenosine A2A receptor) [nM]
"C[C@H](Nc1nc(C(=O)NC[C@H]2CCCN2)c2sccc2n1)c1ccccn1 [Example Z370, 2-(((S)-1-(pyridin-2-yl)ethyl)amino)-N—(((R)-pyrrolidin-2-yl)methyl)thieno[3,2-d]pyrimidine-4-carboxamide]",1.81,> 500,> 500
"Cc1cc2nc(N[C@@H](C)c3cccnc3)nc(C(=O)NCC3CCOCC3)c2s1 [Example Z375, (S)-6-Methyl-2-((1-(pyridin-3-yl)ethyl)amino)-N-((tetrahydro-2H-pyran-4-yl)methyl)thieno[3,2-d]pyrimidine-4-carboxamide]",7.89,10 to 50,100 to 500
"Cc1cc2nc(N[C@@H](C)c3cccnc3)nc(C(=O)NCC3CCNCC3)c2s1 [Example Z377, (S)-6-Methyl-N-(piperidin-4-ylmethyl)-2-((1-(pyridin-3-yl)ethyl)amino)thieno[3,2-d]pyrimidine-4-carboxamide]",39.59,100 to 500,> 500
"Cc1cc2nc(N[C@@H](C)c3cccnc3)nc(C(=O)NCCN3CCOCC3)c2s1 [Example Z378, (S)-6-Methyl-N-(2-morpholinoethyl)-2-((1-(pyridin-3-yl)ethyl)amino)thieno[3,2-d]pyrimidine-4-carboxamide]",15.93,100 to 500,> 500
"Cc1cc2nc(N[C@@H](C)c3cccnc3)nc(C(=O)NC[C@@H]3CCOC3)c2s1 [Example Z387, 6-Methyl-2-(((S)-1-(pyridin-3-yl)ethyl)amino)-N—(((S)-tetrahydrofuran-3-yl)methyl)thieno[3,2-d]pyrimidine-4-carboxamide]",20.10,50 to 100,> 500

# Other lines, results leading:
Ratio (adenosine A2B receptor),IC50 (adenosine A2B receptor) [nM],IC50 (adenosine A2A receptor) [nM],Compound
11.56,> 500,> 500,"N[C@H]1CCN(C(=O)c2nc(NCc3cc(F)cc(F)c3)nc3ccsc23)C1 [Example Z371, (S)-(3-Aminopyrrolidin-1-yl)(2-((3,5-difluorobenzyl)amino)thieno[3,2-d]pyrimidin-4-yl)methanone]"
33.10,50 to 100,> 500,"Cc1cc2nc(N[C@@H](C)c3cncc(F)c3)nc(C(=O)NCCN3CCOCC3)c2s1 [Example Z372, (S)-2-((1-(5-Fluoropyridin-3-yl)ethyl)amino)-6-methyl-N-(2-morpholinoethyl)thieno[3,2-d]pyrimidine-4-carboxamide]"
68.03,100 to 500,> 500,"C[C@H](Nc1nc(C(=O)N2CCC(C(=O)O)C2)c2sccc2n1)c1cncc(F)c1 (stereo partly drawn) [Example Z379, 1-(2-(((S)-1-(5-Fluoropyridin-3-yl)ethyl)amino)thieno[3,2-d]pyrimidine-4-carbonyl)pyrrolidine-3-carboxylic acid]"
13.21,> 500,> 500,"C[C@H](Nc1nc(C(=O)N2CCC(C(=O)O)C2)c2sccc2n1)c1ccccn1 (stereo partly drawn) [Example Z380, 1-(2-(((S)-1-(Pyridin-2-yl)ethyl)amino)thieno[3,2-d]pyrimidine-4-carbonyl)pyrrolidine-3-carboxylic acid]"
47.20,10 to 50,> 500,"C[C@H](Nc1nc(C(=O)N2CCNC2)c2sccc2n1)c1cncc(F)c1 [Example Z381, (S)-(2-((1-(5-Fluoropyridin-3-yl)ethyl)amino)thieno[3,2-d]pyrimidin-4-yl)(imidazolidin-1-yl)methanone]"
7.44,50 to 100,> 500,"C[C@H](Nc1nc(C(=O)NCCc2ccc(Cl)cc2)c2sccc2n1)c1cncc(F)c1 [Example Z385, (S)—N-(4-Chlorophenethyl)-2-((1-(5-fluoropyridin-3-yl)ethyl)amino)thieno[3,2-d]pyrimidine-4-carboxamide]"
